Data published in patent US4875922A, “Pyrimidine derivatives” (Imperial Chemical Industries PLC, priority 1986, dated 1989).

How the values were obtained:
[1] = system: Pyricularia oryzae; type: in vivo; conditions: 100 ppm spray plus root drench (approximately 40 ppm a.i/dry soil), one or two days before inoculation
[2] = system: Rice; assay: Intermediate Retardant Test, rice; type: in vivo, Rice (Ishikari); conditions: Oryza sativa, 672 h, overall spray, approximately 28 days, Table VI, read-out: Percentage Reduction in Height of Rice (Compared to formulation blank)
Method in brief: (§1)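 Overall spray at 500 and 2000 ppm (0.5 and 2 kg/ha^-1 at 1000 l/ha^-1); for apples, a 2000 ppm foliar-only spray was also compared with a 2000 ppm root drench. Rice grew in flooded 4" paddy pots, barley and apples in 4" pots. About 28 days after treatment, height (to top-most ligule, or to apex for apples) was recorded as % reduction versus formulation blank.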

[3] = system: Phytophthora infestans; type: in vivo; conditions: 100 ppm spray plus root drench (approximately 40 ppm a.i/dry soil), one or two days before inoculation
[4] = system: Tomato; assay: Whole plant screen for plant growth regulator activity, tomato (TO); type: in vivo, Tomato (Ailsa Craig); conditions: 4000 ppm (4 kg/ha), visual score after 2-6 weeks
Method in brief: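 Plant growth regulation scored visually 2–6 weeks post-spray, relative to formulation-blank controls, with growth at 25/22 °C day/night under 16 h light. Treatment: 4000 ppm (4 kg/ha, 1000 l/ha volume) track-sprayed onto Ailsa Craig tomato at the 2–2½ leaf stage, grown singly in 3-inch peat pots.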

[5] = system: Rice; assay: Whole plant screen for plant growth regulator activity, rice (RC); type: in vivo, Rice (Ishikari); conditions: 4000 ppm (4 kg/ha), visual score after 2-6 weeks
Method in brief: (§2)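 Growth-regulator effects were judged by eye on glasshouse plants 2-6 weeks post-spray (timing varying with season), using formulation blanks for comparison. Application rate was 4000 ppm, equivalent to 4 kg/ha in 1000 l/ha.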

[6] = system: Puccinia recondita; assay: Foliar fungal disease control, Puccinia recondita (wheat); type: in vivo; conditions: 100 ppm spray plus root drench (approximately 40 ppm a.i/dry soil), one or two days before inoculation
[7] = system: Cercospora arachidicola; assay: Foliar fungal disease control, Cercospora arachidicola (peanut); type: in vivo; conditions: 100 ppm spray plus root drench (approximately 40 ppm a.i/dry soil), one or two days before inoculation
[8] = system: Spring Barley; assay: Intermediate Retardant Test, spring barley; type: in vivo, Spring Barley (Atem/kym); conditions: Hordeum vulgare, 672 h, overall spray, approximately 28 days, Table VII, read-out: Percentage Reduction in Height of Spring Barley (Compared to formulation blank)
Method in brief: as §1

[9] = system: Apples; assay: Intermediate Retardant Test, apples, foliar spray compared with root drench; type: in vivo, Apples (Red Delicious); conditions: 672 h, approximately 28 days, Table IX, read-out: Percentage Reduction in Height of Apples (Compared to formulation blank)
Method in brief: as §1

[10] = system: Erysiphe graminis; assay: Foliar fungal disease control, Erysiphe graminis (barley); type: in vivo; conditions: 100 ppm spray plus root drench (approximately 40 ppm a.i/dry soil); inoculated 24 hours before treatment
[11] = system: Barley; assay: Whole plant screen for plant growth regulator activity, barley (BR); type: in vivo, Barley (Atem); conditions: BR, 4000 ppm (4 kg/ha), visual score after 2-6 weeks; for T = Tillering or side shooting: * = decrease in tillering
Method in brief: as §2

[12] = system: Wheat; assay: Whole plant screen for plant growth regulator activity, wheat (WW); type: in vivo, Wheat (Timmo); conditions: for G = Greening effect / I = Interligular or internodal length reduction / R = Retardation / T = Tillering or side shooting: WW, 4000 ppm (4 kg/ha), visual score after 2-6 weeks; for T = Tillering or side shooting: * = decrease in tillering
Method in brief: as §2

[13] = system: Apple; assay: Whole plant screen for plant growth regulator activity, apple (AP); type: in vivo, Apple (Red Delicious); conditions: 4000 ppm (4 kg/ha), visual score after 2-6 weeks
Method in brief: as §2

[14] = system: Maize; assay: Whole plant screen for plant growth regulator activity, maize (MZ); type: in vivo, Maize (Earliking); conditions: 4000 ppm (4 kg/ha), visual score after 2-6 weeks
Description: Compounds 1 to 3 in Table 1 were tested for plant growth regulator activity against five species for various growth effects relevant to plant growth regulation.
The plant species used in this screen are presented in Table II with the leaf stage at which they were sprayed. Each chemical was applied at 4000 ppm (4 kg/ha in a 1000 l/ha field volume) using a tracksprayer and a SS8004E (Teejet) nozzle.
After spray the plants were grown in a glasshouse with 25° C. day/22° C. night temperatures and supplementary lighting was supplied when necessary (from mercury vapour lamps), to provide a 16 hour photoperiod. The exception to this were the temperate cereals, wheat and barley which were grown in 16° C. day/13° C. night temperatures.
After 2-6 weeks in the glasshouse, depending on the time of year, the plants were visually assessed for morphological characteristics. Formulation blanks were used as controls to assess the plants. […]

[15] = system: Sunflower; assay: Modified Intermediate Retardant Test, sunflower; type: in vivo; conditions: 2000 g/ha, height to apex 14 days after treatment; for […] IN HEIGHT, SR (Foliar): foliar only spray; for […] IN HEIGHT, SR (Root): root drench
Description: (§3) The general Intermediate Retardant Test described in Example 62 was modified by the addition of Sunflowers (SR) and the variety and growth stages at spray are outlined in Table XIII. Apart from the changes indicated, growing conditions for barley, rice and apples were as in Example 62 and growing conditions for Sunflower were as for apples. Test compounds were applied to barley, rice and apples as whole plant (overall) sprays at a rate of 2000 g/ha. Test compounds were applied to sunflowers separately as a foliar only spray at a rate of 2000 g/ha and as a root drench at a rate of 2000 g/ha.
(§4) Barley and rice were assessed for height to topmost ligule 21 days after treatment; apples were assessed for height to apex at 21 days after treatment; and sunflowers were assessed for height to apex at 14 days after treatment. The results are expressed as percentage reduction in height compared with the formulation blank in Table XIV.

[16] = system: Barley; assay: Modified Intermediate Retardant Test, barley; type: in vivo, Barley (Atem); conditions: 2000 g/ha, overall spray, height to topmost ligule 21 days after treatment
Description: as §3, §4

[17] = system: Apple; assay: Modified Intermediate Retardant Test, apples; type: in vivo, Apple (Red Delicious); conditions: 2000 g/ha, overall spray, height to apex 21 days after treatment
Description: as §3, §4

[18] = system: Rice; assay: Modified Intermediate Retardant Test, rice; type: in vivo, Rice (Ishikari); conditions: 2000 g/ha, overall spray, height to topmost ligule 21 days after treatment
Description: as §3, §4

SMILES	G = Greening effect [4]	I = Interligular or internodal length reduction [4]	R = Retardation [4]	G = Greening effect [11]	I = Interligular or internodal length reduction [11]	R = Retardation [11]	T = Tillering or side shooting [11]	G = Greening effect [12]	I = Interligular or internodal length reduction [12]	R = Retardation [12]	T = Tillering or side shooting [12]	[…] IN HEIGHT, SR (Foliar) [15]	[…] IN HEIGHT, SR (Root) [15]	[…] IN HEIGHT, BR [16]	[…] IN HEIGHT, AP [17]	[…] IN HEIGHT, RC [18]	other results
CC(C)CCCC(O)(c1cncnc1)C(C)C (stereo not drawn) [Compound 7, 2-Methyl-1-(4-methylpentyl)-1-(pyrimidin-5-yl)propan-1-ol]	2 (31-60%)	3 (61-100%)	3 (61-100%)	2 (31-60%)	2 (31-60%)	2 (31-60%)	1 (10-30%)	2 (31-60%)	3 (61-100%)	3 (61-100%)	3 (61-100%)						disease control, P[…] (RICE) [1]: 0 (60-100% of disease on untreated plants); Percent reduction in rice height vs formulation blank at 500 ppm ([2]; 500 ppm): 31%; Percent reduction in rice height vs formulation blank at 2000 ppm ([2]; 2000 ppm): 45%; disease control, PH[…] (TOMATO) [3]: 0 (60-100% of disease on untreated plants); G = Greening effect [5]: 1 (10-30%); I = Interligular or internodal length reduction [5]: 2 (31-60%); R = Retardation [5]: 2 (31-60%); disease control, PUCCINIA RECONDITA (WHEAT) [6]: 0 (60-100% of disease on untreated plants); disease control, CERCOSPORA ARACHIDICOLA (PEANUT) [7]: 0 (60-100% of disease on untreated plants); percent reduction in plant height at 500 ppm ([8]; 500 ppm): 23%; percent reduction in plant height at 2000 ppm ([8]; 2000 ppm): 47%; percent reduction in plant height at 2000 ppm ([9]; 2000 ppm (Foliar)): 12%; percent reduction in plant height at 2000 µg/mL ([9]; soil, 2000 pmm (Root), root drench): 45%; disease control, ERYSIPHE GRAMINIS (BARLEY) [10]: 4; G = Greening effect [13]: 1 (10-30%); I = Interligular or internodal length reduction [13]: 2 (31-60%); R = Retardation [13]: 3 (61-100%); G = Greening effect [14]: 1 (10-30%); I = Interligular or internodal length reduction [14]: 2 (31-60%); R = Retardation [14]: 2 (31-60%)
CCCCCC#CC(O)(c1cncnc1)C(C)C (stereo not drawn) [Compound 23]	2 (31-60%)		2 (31-60%)	2 (31-60%)	3 (61-100%)	3 (61-100%)	1 (10-30%)	2 (31-60%)		2 (31-60%)		2%	45%	29%	50%	54%	
CCCCCCC#CC(O)(c1cncnc1)C(C)C (stereo not drawn) [Compound 24]	2 (31-60%)		1 (10-30%)		2 (31-60%)	2 (31-60%)	2*	2 (31-60%)		1 (10-30%)		0%	3%	6%	37%	17%	
CCC/C=C\C(O)(c1cncnc1)C(C)C (stereo not drawn) [Compound 25, 2-methyl-1-(pent-1-ene)-1-(pyrimidin-5-yl)-propan-1-ol]	2 (31-60%)	1 (10-30%)	1 (10-30%)	3 (61-100%)	3 (61-100%)	3 (61-100%)	1*	2 (31-60%)	1 (10-30%)	1 (10-30%)		0%	54%	52%	31%	55%	
CCCCC#CC(O)(c1cncnc1)C(C)(C)C (stereo not drawn) [Compound 31]	2 (31-60%)	3 (61-100%)	3 (61-100%)	3 (61-100%)	3 (61-100%)	3 (61-100%)	1 (10-30%)	3 (61-100%)	3 (61-100%)		1 (10-30%)	19%	51%	69%	50%	77%	A = Apical damage ([12]; 4000 ppm): 1 (10-30%)
CCCCCC#CC(O)(c1cncnc1)C(C)(C)C (stereo not drawn) [Compound 32]	2 (31-60%)	1 (10-30%)	2 (31-60%)	2 (31-60%)	3 (61-100%)	3 (61-100%)	1 (10-30%)	1 (10-30%)	3 (61-100%)	2 (31-60%)		13%	37%	17%	30%	46%	
